Peptide text beside a SMILES is read from it.
Columns and labels:
[1] = test system: E. coli; assay: Antibacterial activities of the peptide analogs (relative OD600); format: cell-based
From the text: FIG. 10 is a plot showing the antibacterial activities of the peptide analogs on E. coli. C-amidation: C-terminus amidated Peptide A; B1: RIILRAQGALKI; B2: IRIILRAQGALK; B3: RIILR. Results expressed as relative OD600 compared to culture medium group (%) (*: p<0.05, **: p<0.01, n=3)

[2] = test system: E. coli PQ37; assay: SOS induction (chromotest); format: cell-based
Experimental: (§1) Results are expressed as 2^(−Delta Delta C (T)). […] Results are expressed as 2^(−Delta Delta C (T)).
E. coli PQ37 (Genotype: Sfi A and Lac Z fusion, lac Z) was cultured in lysogeny broth (LB) that contained 57.2 μM of ampicillin overnight (37° C.) and subcultured through 20 dilutions on another day so that OD600 equals to 0.2-0.4. PQ37 was incubated in 0.3 ml AMP (3.4 μM) or Piscidin ([…], 3.77 μM) for 2 hours and then re-suspended in the same volume of Z-buffer (Na2HPO4.7H2O 16.1 g/l, NaH2PO4.2H2O 6.24 g/L, KCl 0.75 g/L, MgSO4.7H2O 0.246 g/L and b-mercaptoethanol 0.3% (v/v)) for carrying out a β-galactosidase assay (β-ga) and alkaline phosphatase assay (ap), respectively. The bacteria were lysed with 0.1 ml of 0.1% SDS and 0.15 ml of chloroform. For the β-ga assay, the reaction was started by adding 0.6 ml of ortho-Nitrophenyl-β-galactoside (ONPG; Catalog number 34055, ThermoFisher Scientific) for color development and then stopped with the addition of 2 ml of 1 M NaCO3 solution. For ap acsay, the reaction was started by adding 0.6 ml of para-Nitrophenylphosphate (PNPP; Catalog number 34045, ThermoFisher Scientific) for color development which was then terminated by the addition of 1 ml of 2 M HCl solution and 1 ml of 2 M Tri-HCl to restore the colour. The absorbance was read at 420 nm against a blank without bacteria. The induction factor (IF) was calculated as the ratio R(x)/R(0) (R(x)=β-g/ap determined for the tested peptide; R(0)=β-g/ap determined for the LB). Furacin (antibiotic) and Piscidin were chosen as the controls. Each experiment was performed in triplicate.

[3] = test system: E. tarda; assay: Host resistance assay, Experiment Two: pre-injection 2 h before bacteria; format: in vivo, Medaka; conditions: injected 2 h prior to E. tarda
Experimental: FIG. 11A is a plot showing the effect of Peptide A on viability of cultured mammalian cells, incubated for 48 h in the presence of Peptide A at different concentrations (μg/ml), as determined by MTT assay. Cell viability represented as peptide treated cell numbers over medium-only control. Statistically significant difference as compared to controls (*: p<0.05, **: p<0.01, n=4). FIG. 11B is a plot showing the ability of Peptide A to protect medaka from lethal challenge of E. tarda ([…]). Medaka was injected with 1 μl of Peptide A (0.68 mM), with 1 μl of E. tarda (10^7 CFU/ml) and Peptide A (0.68 mM) mixture, or with E. tarda alone (1 μl of E. tarda:10^7 CFU/ml). […] 20 fish per group. Log-rank (Mantel-Cox) test was applied for the comparison of survival curves (**: p<0.01).
The efficacy of the synthesized AMP to protect medaka against infection was characterized using host resistance assays with intraperitoneal (i.p.) injection of bacteria using a micro-injection machine (PV820 Pneumatic PicoPump). In Experiment One, 80 medaka fish were used and divided into four groups (20 fish in each group, male, 6 months): (1) Group 1 was injected with only 1 μl of PBS in each fish; (2) Group 2 was injected with only 1 μl of novel AMP (0.68 mM) in each fish; (3) Group 3 was injected with 1 μl of bacteria (at a titer of 5×10^7 CFU/ml); and (4) bacteria and novel AMP were mixed for 5 min and then 1 μl of the mixture was injected into Group 4 (Bacteria: 5×10^7 CFU/ml, AMP: 0.68 mM). In Experiment Two, 60 fish were used and divided into three groups: each fish was injected with 1 μl of PBS, ampicillin (5.7 mM) or Peptide A (1.36 mM). The fish were anesthetized in MS222 for 30 s before microinjection. After two hours, 1 μl of bacteria (5×10^7 CFU/ml) was injected into the fish. All of the fishes were kept under a static condition of 26° C.±1° C., with 14:10 hrs of a light-dark cycle. The water was replaced every two days. The fish were fed three times each day. The number of dead fish was counted on a daily basis until two weeks after the injections.

[4] = test system: E. coli; format: cell-based
[5] = test system: CpxR; assay: Quantitative real-time PCR; format: cell-based; conditions: E. tarda, Piscidin 7.5 μM, 1 hour
From the text: as §1
Each group has 6 biological replicates. […] Gene-specific primers were designed with Primer-BLAST (NCBI).

RIILRAQGALKI [Peptide B1, Peptide A with the N-terminal amino acid removed]
antibacterial activity compared with Peptide A [1]: reduce the antibacterial effect

IRIILRAQGALK [Peptide B2, Peptide A with the C-terminal amino acid removed]
antibacterial activity compared with Peptide A [1]: reduce the antibacterial effect

NC(=O)N/N=C/c1ccc([N+](=O)[O-])o1 [Furacin]
SOS response (expression of LacZ), positive control ([2]; E. coli, different doses of Furacin): dose-dependent expression of LacZ

RIILR [Peptide B3]
antibacterial activity compared with Peptide A [1]: much weaker antibacterial activity

CC1(C)S[C@@H]2[C@H](NC(=O)[C@H](N)c3ccccc3)C(=O)N2[C@H]1C(=O)O [Ampicillin, reference compound]
initial survival rate ([3]; one day post injection, Peptide A 1.37 mM, Ampicillin 5.7 mM, 1 μl): about 45% | effect on E. tarda infection / surviving fish ([3]; two weeks after infection): ineffective

CC(C)C[C@H](NC(=O)[C@H](Cc1ccc(O)cc1)NC(=O)[C@H](Cc1c[nH]cn1)NC(=O)[C@H](CCCCN)NC(=O)[C@H](CC(C)C)NC(=O)[C@H](C)NC(=O)[C@H](CC(C)C)NC(=O)[C@H](CCCCN)NC(=O)CNC(=O)[C@@H](NC(=O)[C@@H](NC(=O)[C@H](CCCCN)NC(=O)[C@@H](NC(=O)[C@H](CCC(=O)O)NC(=O)[C@H](C)NC(=O)[C@H](CCCCN)NC(=O)[C@H](CCCCN)NC(=O)[C@H](CC(C)C)NC(=O)[C@H](CC(C)C)NC(=O)[C@@H](NC(=O)[C@H](CCCNC(=N)N)NC(=O)[C@H](Cc1c[nH]c2ccccc12)NC(=O)CN)[C@@H](C)O)C(C)C)[C@@H](C)O)C(C)C)C(=O)O [Piscidin] (H-GWRTLLKKAEVKTVGKLALKHYL-OH; N-terminus and C-terminus assumed)
MIC for E. coli [4]: 3.77 µM | CpxR gene expression [5]: no effect | SOS response (induction factor) ([2]; E. coli PQ37, 120 min, Peptide A 3.4 μM, Piscidin 3.77 μM): no effect on SOS response

Source: patent US11065296B2, “Antimicrobial peptide, its analog and use” (City University of Hong Kong, priority 2018, dated 2021)
